Test system: H460
Experiment: MTT proliferation, H460
Format: cell-based, human
Conditions: 48 hours
Description: EGFR, ALK and ROS1 are key molecular factors that may be used to determine pathological classification, prognosis, therapeutics and behaviour in patients with lung cancer. EGFR, ALK and ROS1 are biomarkers routinely analysed in the clinical practice of the management of patients with NSCLC. NSCLC with molecular profile EGFR-/ALK-/ROS1- presents a better response to treatment with the NK1 inhibitor aprepitant, compared to lung cancer with different profiles (in particular, EGFR+/ALK-/ROS1- and EGFR-/ALK+/ROS1-, in which EGFR and ALK respectively contain mutations relative to their wild type gene). Commercial lines of lung cancer were used as shown in Table 2 together with their molecular profile. The molecular profile of the cancer cell lines was determined by sequencing and can be consulted in the Cancer Cell Line Encyclopaedia database of public access available at the url: https://portals.broadinstitute.org/ccle All cells were cultured in wells under vendor-recommended conditions and exposed to different concentrations of aprepitant for 48 hours. In each case a group of wells of cells were used to which no treatment was applied and which were considered as controls. At 48 hours the number of cells was measured. Eight cell lines of human were used for the study of NK1 inhibitors (Table 3). All of them were maintained in culture in their respective culture media (Gibco,Thermo Fisher Scientific) supplemented with 10% foetal bovine serum (FBS) (Gibco, Thermo Fisher Scientific), 2 mM L-Glutamine (Gln) (Sigma-Aldrich, Merk), and […] and […] Gibco, Thermo Fisher Scientific) in a humidified incubator at 37° C. and 5% CO2. Cell culture media used are Dulbecco's Modified Eagle Medium (DMEM), and RPMI Medium 1640 (RPMI-1640). To measure cell viability, the cytotoxicity of drugs in culture was evaluated using the 3-(4,5-Dimethyl-2-thiazolyl)-2,5-diphenyl-2H-tetrazolium bromide (MTT) reduction assay. This assay assesses cell viability through the indirect measurement of the activity of reductases that convert yellow soluble MTT into purple insoluble formazan salts. As MTT can only be reduced when these enzymes are active, the reaction is used as an indicator of the cell metabolic competence and, therefore, of viability. A variable number of cells (depending on the cell line) were seeded in 96 multi-well plates and grown during 24 hours. The following day, the culture medium was aspirated and fresh culture medium with the drug dissolved was added to the wells. After 24 hours or 48 hours cell viability was measurement by adding 10 μl of a 5 mg/ml MTT solution (M5655; Sigma-Aldrich) and 100 μl of HCl 0.01M-SDS 10% solution 4 hours later. After 24 hours, the absorbance was measured at 595 nm, using a multi-well plate reader (iMark, Bio-rad). Each condition was tested 5 times, obtaining 5 values of absorbance. All sample measurements were corrected using the blank (culture medium without cells) mean absorbance value, and normalized to positive control to determinate relative cell viability for each condition at 24 and 48 hours.

For `C[C@@H](O[C@H]1OCCN(Cc2nc(=O)[nH][nH]2)[C@H]1c1ccc(F)cc1)c1cc(C(F)(F)F)cc(C(F)(F)F)c1` [Aprepitant], the Mean proliferation (aprepitant 1 μM) was 91.72, the Mean proliferation (aprepitant 3 μM) was 100.26 and the Mean proliferation (aprepitant 5 μM) was 67.81. For the same compound, the Mean proliferation (aprepitant 10 μM) was 56.01, the Mean proliferation (aprepitant 20 μM) was 31.24 and the Mean proliferation (aprepitant 30 μM) was 18.27. The Mean proliferation (aprepitant 40 μM) was 14.74, the Mean proliferation (aprepitant 50 μM) was −0.95 and the Mean proliferation (aprepitant 60 μM) was −1.95.

Reference: patent US20240082273A1, “NEUROKININ INHIBITORS SUCH AS APREPITANT FOR TREATING NON SMALL CELL LUNG CARCINOMA OR BREAST CANCER WITHOUT MUTATIONS” (priority 2020, published 2024)
